Assay results taken from patent publication US11213538B2, “Agent for overcoming immunosuppression and use thereof” (GENERAL INCORPORATED ASSOCIATION PHARMA VALLEY PROJECT …, priority 2016, dated 2022).

How the values were obtained:
[1] = target: T1, FOXP3 (Homo sapiens, UniProt Q9BZS1); assay: FOXP3 function inhibitory activity, NF-κB luciferase reporter in HEK293/NF-κB-RE/FOXP3 cells with TNF-alpha; type: cell-based; settings: for Chemiluminescence intensity ratio (HEK293/NF-κB-RE/FOXP3 cells / HEK293/NF-κB-RE cells): DMSO control = 1.0
T1 construct: expressed in transfected cells
T1 sequence (Q9BZS1 1-431): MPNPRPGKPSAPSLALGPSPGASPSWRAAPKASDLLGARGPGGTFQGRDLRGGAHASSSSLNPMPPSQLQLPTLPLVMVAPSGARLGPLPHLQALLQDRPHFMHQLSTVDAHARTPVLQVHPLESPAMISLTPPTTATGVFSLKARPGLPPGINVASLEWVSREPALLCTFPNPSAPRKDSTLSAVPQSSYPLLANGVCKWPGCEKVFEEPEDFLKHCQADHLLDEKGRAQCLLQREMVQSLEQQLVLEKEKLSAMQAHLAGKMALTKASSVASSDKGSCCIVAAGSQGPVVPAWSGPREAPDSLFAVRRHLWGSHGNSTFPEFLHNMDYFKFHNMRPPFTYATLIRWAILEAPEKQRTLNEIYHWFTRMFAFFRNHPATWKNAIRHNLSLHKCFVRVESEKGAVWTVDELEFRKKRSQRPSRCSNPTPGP
Experimental: Into HEK293/NF-κB-RE cells, pcDNA3.1-FOXP3 (Department of Cancer vaccine therapy/Immuno-gene therapy, Mie University Graduate School of Medicine), which is a FOXP3 gene expression vector, was introduced, and the cells were subjected to a selection through culture in a medium containing 0.5 mg/mL G418 for 3 weeks. The obtained single clone was isolated and established as a stable line. For culture, DMEM containing 10% heat inactivated […], 0.2 mg/mL Hygromycin B, and 0.5 mg/mL G418 was used.
A cell suspension of 1.875×10^5 cells/mL was prepared for HEK293/NF-κB-RE/FOXP3 cells and HEK293/NF-κB-RE cells, respectively, using DMEM with 10% heat inactivated FBS and without phenol red (medium for assay). The cell suspension was seeded into a 96 well white microplate (nunc) at 80 μL/well (1.5×10^4 cells/well) and the cells were cultured overnight under the conditions of 37° C. and 5% CO2.
A DMSO solution of a test drug with a concentration of 1000 times the final concentration was diluted 100 times with the medium for assay to prepare a test drug solution with a concentration of 10 times the final concentration (a 10 times concentration test drug solution). To each well into which the cell suspension was seeded, 10 μL of the 10 times concentration test drug solution was added and treatment was carried out under the conditions of 37° C. and 5% CO2 for an hour (10 μL of a 1% DMSO solution was added to the control at this time).
Recombinant Human TNF-alpha (R&D Systems) was made to 100 μg/mL with 0.1% BSA-containing PBS, and was further diluted with the medium for assay to prepare a 3 ng/mL TNF-alpha solution. To each well described above, 10 μL of the 3 ng/mL TNF-alpha solution was added, and stimulation was performed under the conditions of 37° C. and 5% CO2 for 2.5 hours (the final concentration of TNF-alpha: 0.3 ng/mL).
The culture supernatant was removed, and the cells were washed once with 100 μL of the medium for assay. After adding 100 μL of the medium for assay, 50 μL of Steady-Glo (Promega Corporation) was added. The microplate was shaken for 10 minutes on a plate shaker with the light blocked. After shaking, the chemiluminescence intensity was measured by ARVO Light plate reader (Perkin Elmer). It should be noted that each test was carried out three times. The results obtained by using HEK293/NF-κB-RE/FOXP3 cells are shown in FIG. 1(A) and the results obtained by using HEK293/NF-κB-RE cells are shown in FIG. 1(B).
The FOXP3 inhibitory activity was evaluated in the same method as that in Example 1 except that the test drug was changed to epirubicin, pirarubicin, daunorubicin, doxorubicin, or idarubicin. The final concentration of each test drug was 0.01, 0.03, 0.1, 0.3 or 1 μM (only epirubicin and doxorubicin were tested also at 1 μM, and idarubicin was tested only at 0.01 and 0.03 μM).
Furthermore, the chemiluminescence intensity ratio was calculated by the Formula 1 below. The test was carried out three times. Chemiluminescence intensity ratio=(chemiluminescence intensity measured when HEK293/NF-κB-RE/FOXP3 cells were used)/(chemiluminescence intensity measured when HEK293/NF-κB-RE cells were used) [Formula 1] 3. Results

[2] = system: HEK293/NF-κB-RE cells; assay: NF-κB luciferase reporter in HEK293/NF-κB-RE cells without FOXP3, with TNF-alpha; type: cell-based, human; settings: epirubicin 0.003-1 μM, TNF-alpha 0.3 ng/mL, FIG. 1(B)
From the text: Herein, the activity of inhibiting FOXP3 function can be evaluated by preparing HEK293 cells (HEK293/NF-κB-RE cells) into which a luciferase reporter vector has been stably introduced and cells (HEK293/NF-κB-RE/FOXP3 cells) obtained by stably introducing the FOXP3 gene into the HEK293/NF-κB-RE cells, adding a test drug and TNF-alpha (TNF-α) thereto, followed by culture, and measuring a difference in chemiluminescence intensity in each cell group.
Into a human embryonic kidney-derived cell line HEK293 (RIKEN CELL BANK), pGL4.32 [luc2P/NF-κB-RE/Hygro] (Promega Corporation), which is a luciferase reporter vector, was introduced, and the cells were subjected to a selection through culture in a medium containing 0.2 mg/mL Hygromycin B for 3 weeks. The obtained single clone was isolated and established as a stable line. For culture, DMEM (Dulbecco's Modified Eagle's Medium) containing 10% heat inactivated FBS and 0.2 mg/mL Hygromycin B was used.
A cell suspension of 1.875×10^5 cells/mL was prepared for HEK293/NF-κB-RE/FOXP3 cells and HEK293/NF-κB-RE cells, respectively, using DMEM with 10% heat inactivated FBS and without phenol red (medium for assay). […]
The culture supernatant was removed, and the cells were washed once with 100 μL of the medium for assay. […] After shaking, the chemiluminescence intensity was measured by ARVO Light plate reader (Perkin Elmer). […]

[3] = system: mouse regulatory T cells; assay: Overcoming immunosuppressive action of mouse regulatory T cells: growth of CFSE-stained CD8+ T cells co-cultured with epirubicin-treated CD4+CD25+ T lymphocytes; type: cell-based, BALB/c mice; settings: in the presence of regulatory T cells treated with epirubicin at a low dose not showing cytotoxicity, FIG. 2
Experimental: Anti-CD3 antibody (1 μg/mL, manufactured by eBioscience) was added to a 12 well flat-bottom plate and the plate was left to stand at 4° C. overnight, and then washed with RPMI 1640 medium. Spleen was isolated from BALB/c mice, and CD4^+CD25^+ T lymphocytes were isolated using a mouse regulatory T cell isolation kit (manufactured by Miltenyi Biotec) and autoMACS separator (manufactured by Miltenyi Biotec). To the 12 well flat-bottom plate coated with anti-CD3 antibody, seven hundred thousand CD4^+CD25^+ T lymphocytes per well were added, and anti-CD28 antibody (manufactured by eBioscience) and IL-2 (NOVARTIS) were added so that the concentrations were 1 μg/mL and 60 IU/mL, respectively. Next, epirubicin was added at various concentrations and the lymphocytes were cultured in an incubator at 37° C. for 48 hours and then washed with a 10% FBS supplemented RPMI 1640 medium.
Anti-CD3 antibody (1 μg/mL, manufactured by eBioscience) was added to a 96 well flat-bottom plate and the plate was left to stand at 4° C. overnight, and then washed with RPMI 1640 medium. […] The lymphocytes were collected and washed with PBS containing 0.5% BSA, and then stained with anti-CD8-APC antibody (manufactured by eBioscience) and analyzed using FACS Canto II flow cytometer (manufactured by Becton Dickinson).

[4] = system: CD4+FOXP3+ and CD4+FOXP3− tumor-infiltrating lymphocytes; assay: IFN-γ positive cells among tumor-infiltrating lymphocytes of CMS5a tumor-bearing mice; type: in vivo, BALB/c mice; settings: epirubicin 0.1, 0.3, 1 mg/kg intravenously on days 3, 5, 7, TIL collected day 8
Experimental: CMS5a cells were transplanted under the skin in the posterodorsal region of female BALB/c mice (8 mice per group) on day 0. […] On day 8, the mice were euthanized and tumors were collected. Using gentle MACS dissociator (manufactured by Miltenyi Biotec) in accordance with the instruction manual, tumor-infiltrating lymphocytes (TIL) were separated from the tumors. The collected cells were seeded into a 24 well plate and stimulated with phorbol 12-myristate 13-acetate (PMA) and ionomycin under the condition of 37° C. for an hour, and then cultured with GolgiPlug (BD Biosciences) for 6 hours. After collecting the cells, the cells were stained with PreCP-CyTM5.5 rat anti-mouse CD4 antibody (manufactured by BD Pharmingen) and V500 rat anti-mouse CD8a antibody (manufactured by BD Horizon) under the condition of 4° C. for 15 minutes. The stained cells were fixed with Fixation/Permeabilization Concentrate and Diluent (1:3, manufactured by eBioscience) under the condition of 4° C. overnight. […] The stained cells were analyzed using FACS Canto II flow cytometer (manufactured by Becton Dickinson).

[5] = test drug concentration 0.01 (μM)
[6] = test drug concentration 0.03 (μM)
[7] = test drug concentration 0.1 (μM)
[8] = test drug concentration 0.3 (μM)

Row | Compound | Chemiluminescence intensity ratio (HEK293/NF-κB-RE/FOXP3 cells / HEK293/NF-κB-RE cells) [1, 5] | Chemiluminescence intensity ratio (HEK293/NF-κB-RE/FOXP3 cells / HEK293/NF-κB-RE cells) [1, 6] | Chemiluminescence intensity ratio (HEK293/NF-κB-RE/FOXP3 cells / HEK293/NF-κB-RE cells) [1, 7] | Chemiluminescence intensity ratio (HEK293/NF-κB-RE/FOXP3 cells / HEK293/NF-κB-RE cells) [1, 8] | Chemiluminescence intensity ratio (HEK293/NF-κB-RE/FOXP3 cells / HEK293/NF-κB-RE cells) ([1]; test drug concentration 1 (μM)) | FOXP3 inhibitory activity (Example 2, in words) ([1]; 0.01-1 μM, Table 2) | inhibition of FOXP3 function (conclusion of Example 1) ([1]; FOXP3 cells compared with cells without FOXP3) | chemiluminescence intensity compared to control ([1]; HEK293/NF-κB-RE/FOXP3 cells, 0.1 μM) | chemiluminescence intensity compared to control ([1]; HEK293/NF-κB-RE/FOXP3 cells, 0.3 or 1 μM) | chemiluminescence intensity ([1]; HEK293/NF-κB-RE/FOXP3 cells, epirubicin 0.003-1 μM, TNF-alpha 0.3 ng/mL, FIG. 1(A)) | chemiluminescence intensity [2] | growth rate of CD8+ T cells [3] | proportion of IFN-γ positive cells to CD4+FOXP3+ cells ([4]; FIG. 3(A)) | proportion of IFN-γ positive cells to CD4+FOXP3− cells ([4]; FIG. 3(B))
1 | CC(=O)[C@]1(O)Cc2c(O)c3c(c(O)c2[C@@H](O[C@H]2C[C@H](N)[C@H](O)[C@H](C)O2)C1)C(=O)c1ccccc1C3=O [Idarubicin, idarubicin] | 1.02 | 1.21 |  |  |  |  |  |  |  |  |  |  |  | 
2 | COc1cccc2c1C(=O)c1c(O)c3c(c(O)c1C2=O)C[C@@](O)(C(=O)CO)C[C@@H]3O[C@H]1C[C@H](N)[C@H](O)[C@H](C)O1 [Doxorubicin, doxorubicin] | 0.97 | 1.08 | 1.14 | 1.29 | 1.38 |  |  |  |  |  |  |  |  | 
3 | COc1cccc2c1C(=O)c1c(O)c3c(c(O)c1C2=O)C[C@@](O)(C(=O)CO)C[C@@H]3O[C@H]1C[C@H](N)[C@@H](O)[C@H](C)O1 [Epirubicin, epirubicin] | 1.29 | 1.39 | 1.42 | 1.62 | 2.37 | increased in a concentration-dependent manner | selectively inhibited FOXP3 function | significantly high as compared to that in the control at P<0.05 | significantly high as compared to that in the control at P<0.01 | increased in an epirubicin concentration-dependent manner | concentration-dependent changes were not observed | increased in a concentration-dependent manner | increased in a concentration-dependent manner | did not vary
4 | COc1cccc2c1C(=O)c1c(O)c3c(c(O)c1C2=O)C[C@@](O)(C(C)=O)C[C@@H]3O[C@H]1C[C@H](N)[C@H](O)[C@H](C)O1 [Daunorubicin, daunorubicin] | 1.09 | 1.12 | 1.82 | 2.07 |  |  |  |  |  |  |  |  |  | 
5 | COc1cccc2c1C(=O)c1c(O)c3c(c(O)c1C2=O)C[C@@](O)(C(=O)CO)C[C@@H]3O[C@H]1C[C@H](N)[C@H](O[C@@H]2CCCCO2)[C@H](C)O1 [Pirarubicin, pirarubicin] | 1.03 | 1.08 | 1.53 | 1.50 |  |  |  |  |  |  |  |  |  | 
